US6087379A, “Cyclic amine derivatives” (Sankyo Company, Limited, priority 1996, dated 2000)
Structures can show the parent of a compound that is named as a salt.

Assays:
male ICR mice = assay: Test 1: Prolongation of Bleeding Time in Mice; type: in vivo, mouse (ICR); conditions: oral, 3 days (48, 24 and 4 hours before), ratio test compound-treated to control, cut-off 300 seconds
Protocol: Prolongation of Bleeding Time in Mice Groups of 10 male ICR mice (Charles River Japan Inc.) were used in the experiment. Test compound suspended in 5% gum arabic solution was orally administered for 3 days (48, 24 and 4 hours before the experiment). Each mouse was placed in a retainer, and the tail was transected at 5 mm from the tip, and then the tail (2 cm) was immersed in saline solution warmed at 37° C. Bleeding time was defined as the interval between the time of transection until bleeding stopped over a 15 seconds period. Bleeding times beyond 5 minutes were recorded as 5 minutes (300 seconds). Results were expressed as ratios of bleeding times of test compound-treated to non-treated (control) groups in which mice received 5% gum arabic solution.

platelet aggregation = assay: Test 2: Antiaggregatory Action in Rats (ex vivo platelet aggregation in citrated blood, ADP or collagen); conditions: Rattus norvegicus, oral, 4 hours before, female SD rats, induced by ADP or collagen (which one not given)
Protocol: Antiaggregatory Action in Rats
Groups of 4 female SD rats (Charles River Japan Inc.) were used in the experiment Test compound suspended in 5% gum arabic solution was orally administered to rats 4 hours before the experiment. Control rats received 5% gum farabic solution. Platelet aggregation was measured according to the method of P. Lumley and P. P. A. Humphrey (J. Pharmacol. Methods, 6, 153-166 (1981)) with a slight modification. Blood (5.4 ml) was collected from the abdominal aorta of anesthetized rats using 3.8% (w/v) sodium citrate solution (0.6 ml) as an anticoagulant. An aliquot of citrated blood (1.2 ml) added to the cuvette was stirred (1000 rpm) at 37° C. Two minutes later, blood (0.3 ml) was taken from the cuvette, and the number of platelets was measured by an automatic hematology analyzer (E-4000, Toa Iyo Denshi), which was designated as the pre-aggregation number of platelets. To the remaining blood (0.9 ml) in the cuvette were added 0.1 ml of 0.05 mM adenosine-5'-diphosphate (ADP) or 0.06 mg/ml collagen to induce platelet aggregation. Two minutes after the addition of ADP or 4 minutes after the addition of collagen, blood (0.3 ml) was taken from the cuvette, and the number of platelets was measured, which was designated as the post-aggregation number of platelets. Platelet aggregation (%) was determined by the following equation:
100×(pre-aggregation number of platelets-post-aggregation number of
platelets)/pre-aggregation number of platelets
Antiaggregatory action of the test compound was determined comparing platelet aggregation of test compound-treated rats to that of control rats (without administration of test compound).

Human Platelets = assay: Test 3: Antiaggregatory Action in Human Platelets (PRP, ADP-induced aggregation); type: cell-based; conditions: Platelet, 37° C.; for inhibition at 10 µg/mL: 10 μg/ml; for inhibition at 30 µg/mL: 30 μg/ml
Protocol: Antiaggregatory Action in Human Platelets
Platelet aggregation was measured using an automatic platelet aggregometer (PAM-8C, Mebanix) by the method of G.V.R. Born (Nature, 194, 927-929 (1962)) with a slight modification. Blood was collected from the antecubital vein of healthy volunteers who had not taken any medications for 2 weeks using 3.8% sodium citrate as an anticoagulant (1/9 volume of blood). Platelet-rich plasma (PRP) was obtained by centrifugation (CR5DL, Hitachi) at 200×g for 15 minutes at room temperature. Platelet-poor plasma (PPP) was obtained by further centrifugation of the remained blood at 2000×g for 10 minutes at room temperature. The number of platelets in PRP was measured by an automatic hematology analyzer (K-1000, Toa Iyo Denshi), and adjusted to 3×10^8 /ml using PPP. PRP prepared as described above was used for the platelet aggregation experiment. PRP (0.24 ml) was added to the cuvette and set in the platelet aggregometer. After pre-incubation for 1.5 minutes at 37° C., 0.01 ml of 0.25 mM ADP were added to the cuvette to initiate platelet aggregation. Platelet aggregation was monitored for 10 minutes.
Antiaggregatory action of test compound was expressed as inhibition (%) of aggregation comparing platelet aggregation of test compound to that of control (without addition of test compound).

| Compound | bleeding time extending ratio (male ICR mice; 10 mg/kg) | bleeding time extending ratio (male ICR mice; 30 mg/kg) | inhibition at 10 mg/kg (platelet aggregation) | inhibition at 30 mg/kg (platelet aggregation) | inhibition at 10 µg/mL (Human Platelets) | inhibition at 30 µg/mL (Human Platelets) |
| --- | --- | --- | --- | --- | --- | --- |
| CC(=O)SC1CCN(C(C(=O)C2CC2)c2ccccc2F)CC1 (stereo not drawn) [Example 1(a), 4-Acetylthio-1-(α-cyclopropylcarbonyl-2-fluorobenzyl)piperidine] | 1.06 | 2.06 | 5.7% | 23.3% |  |  |
| Cl.O=C(C1CC1)C(c1ccccc1F)N1CCC(S)CC1 (stereo not drawn) [Example 1(b), 1-(α-Cyclopropylcarbonyl-2-fluorobenzyl)-4-mercaptopiperidine hydrochloride] |  | 1.46 |  |  | 48.6% | 70.6% |
| CCOC(=O)/C=C1\CN(C(C(=O)C2CC2)c2ccccc2F)CCC1SC(C)=O (stereo not drawn) [Example 10(a), (E)-4-Acetylthio-1-(α-cyclopropylcarbonyl-2-fluorobenzyl)-3-ethoxycarbonylmethylidenepiperidine] | > 2.75 | > 2.75 | 88.6% | 97.2% |  |  |
| O=C(O)/C=C1/CN(C(C(=O)C2CC2)c2ccccc2F)CCC1S (stereo not drawn) [Example 12, (Z)-1-(α-Cyclopropylcarbonyl-2-fluorobenzyl)-3-carboxymethylidene-4-mercaptopiperidine trifluoroacetate] |  |  |  |  | 41.2% | 68.9% |
| CCOC(=O)/C=C1\CN(C(C(=O)OC)c2ccccc2Cl)CCC1SC(C)=O (stereo not drawn) [Example 13, (E)-4-Acetylthio-1-(2-chloro-α-methoxycarbonylbenzyl)-3-ethoxycarbonylmethylidenepiperidine] | > 2.75 | > 2.75 |  |  |  |  |
| CC(=O)SC1CCN(C(C(=O)C2CC2)c2ccccc2F)C/C1=C\C(=O)N(C)C (stereo not drawn) [Example 15(a), (E)-4-Acetylthio-1-(α-cyclopropylcarbonyl-2-fluorobenzyl)-3-(N,N-dimethylcarbamoyl)methylidenepiperidine] | 2.53 | > 2.75 | 18.6% | 95.9% |  |  |
| CCCC(=O)SC1CCN(C(C(=O)C2CC2)c2ccccc2F)CC1 (stereo not drawn) [Example 18, 4-Butyrylthio-1-(α-cyclopropylcarbonyl-2-fluorobenzyl)piperidine] | 1.45 | 2.57 |  | 18.3% |  |  |
| COC(=O)C(c1ccccc1F)N1CCC(SC(=O)c2ccccc2)CC1 (stereo not drawn) [Example 28, 4-Benzoylthio-1-(2-fluoro-α-methoxycarbonylbenzyl)piperidine] | 1.24 | 2.16 |  | 39.6% |  |  |
